Measured values as given in ChEMBL document CHEMBL1201862, “PubChem BioAssay data set” (2004).
One block for each compound: values may come before it. Calls of active or inactive are those of the source.

Assays:
[1] = biological target: T1, Sphingosine 1-phosphate receptor 4 (Homo sapiens, UniProt O95977); test: Fluorescence dose response cell-based high throughput screening assay for agonists of the Sphingosine 1-Phosphate Receptor 4 (S1P4). [Related pubchem assays: 1509 (Primary screen.), 1523 (Confirmation screen in triplicates.)]; type: functional
T1 sequence (O95977 whole entry): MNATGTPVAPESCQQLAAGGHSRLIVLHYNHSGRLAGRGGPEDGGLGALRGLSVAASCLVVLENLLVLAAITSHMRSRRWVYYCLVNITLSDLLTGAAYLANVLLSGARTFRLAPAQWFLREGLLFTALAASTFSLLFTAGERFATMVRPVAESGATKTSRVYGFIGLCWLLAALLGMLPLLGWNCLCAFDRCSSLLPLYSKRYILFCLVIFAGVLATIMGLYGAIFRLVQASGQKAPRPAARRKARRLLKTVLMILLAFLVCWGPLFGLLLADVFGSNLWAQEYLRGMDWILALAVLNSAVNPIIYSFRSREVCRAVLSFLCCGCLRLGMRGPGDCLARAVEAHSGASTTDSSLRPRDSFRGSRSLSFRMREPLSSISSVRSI

[2] = biological target: Sphingosine 1-phosphate receptor 1 (Homo sapiens, UniProt P21453); test: Fluorescence-based counterscreen assay for S1P4 agonists: Cell-based dose response high throughput screening assay to identify agonists of the Sphingosine 1-Phosphate Receptor 1 (S1P1). [Related pubchem assays (depositor defined):AID1509, AID1523, AID1801, AID463107, AID463118, AID463119, AID463122, AID463123, AID463129, AID463225, AID504400, AID504460]; type: functional
[3] = biological target: T2, Mu-type opioid receptor (Homo sapiens, UniProt P35372); test: mu opioid receptor blockers – image-based, SAR follow-up (AID 2420); type: functional;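 note: compounds added before stimulation of receptor with agonist DAMGO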
[4] = biological target: T3, Delta-type opioid receptor (Homo sapiens, UniProt P41143); test: delta opioid receptor blockers – image-based, SAR follow-up (AID 2357); type: functional
[5] = biological target: Dual specificity protein phosphatase 3 (Homo sapiens, UniProt P51452); test: SAR VHR1 Fluorescent Assay for In Vitro dose response studies Set 2. [Related pubchem assays (depositor defined):AID1654, AID1661, AID1878]; type: functional
[6] = biological target: T4, Tyrosine-protein phosphatase non-receptor type 7 (Homo sapiens, UniProt P35236); test: SAR analysis of chemical inhibitors of HePTP using a Fluorescent assay - Set 2. [Related pubchem assays (depositor defined):AID1059, AID1077, AID1661, AID2085, AID521]; type: functional
T4 sequence (P35236 whole entry): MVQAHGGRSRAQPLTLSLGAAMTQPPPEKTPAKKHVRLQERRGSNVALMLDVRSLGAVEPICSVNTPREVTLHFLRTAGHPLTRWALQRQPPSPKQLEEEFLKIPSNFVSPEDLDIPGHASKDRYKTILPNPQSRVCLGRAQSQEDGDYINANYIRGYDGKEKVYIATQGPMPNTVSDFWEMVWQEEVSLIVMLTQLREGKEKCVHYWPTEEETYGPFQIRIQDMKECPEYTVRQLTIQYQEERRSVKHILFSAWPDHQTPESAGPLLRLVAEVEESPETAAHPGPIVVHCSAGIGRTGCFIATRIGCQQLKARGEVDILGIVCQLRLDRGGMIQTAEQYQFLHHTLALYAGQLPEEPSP

[7] = biological target: T3, Delta-type opioid receptor; test: DOR agonists, SAR follow-up, image-based (AID 2370); type: functional
[8] = biological target: T5, Kappa-type opioid receptor (Homo sapiens, UniProt P41145); test: kappa opioid receptor blockers, image-based, SAR follow-up (AID 2348); type: functional
[9] = biological target: T5, Kappa-type opioid receptor; test: kappa opioid receptor activation potency – imaging, image-based, SAR follow-up (AID 2359); type: functional
[10] = biological target: T5, Kappa-type opioid receptor; test: kappa opioid receptor blockers, cell-based, luminescence, beta-arrestin, SAR follow-up (AID 2285); type: functional
[11] = biological target: T2, Mu-type opioid receptor; test: mu opioid receptor activators, image-based, SAR follow-up (AID 2352); type: functional
[12] = biological target: T5, Kappa-type opioid receptor; test: kappa opioid receptor activation by imaging – image-based, set 3, SAR follow-up (AID 488833); type: functional
[13] = biological target: T5, Kappa-type opioid receptor; test: SAR analysis of small molecule agonists of the kappa opioid receptor via a luminescent beta-arrestin assay - Set 2. [Related pubchem assays (depositor defined):AID1777, AID1785, AID1786, AID1966, AID2133, AID2136, AID2284, AID449737]; type: functional
[14] = biological target: T5, Kappa-type opioid receptor; test: SAR analysis of Antagonists of the Kappa Opioid Receptor (KOR) using an Image-Based Assay - Set 2. [Related pubchem assays (depositor defined):AID1777, AID1785, AID1786, AID1966, AID2133, AID2136, AID2284, AID2285, AID2348]; type: functional
[15] = biological target: T3, Delta-type opioid receptor; test: SAR Analysis of Agonists of the DOR Receptor using an Image-Based Assay - Set 3. [Related pubchem assays (depositor defined):AID1777, AID1786]; type: functional
[16] = biological target: T3, Delta-type opioid receptor; test: SAR Analysis of Agonists of the DOR Receptor using an Image-Based Assay - Set 2. [Related pubchem assays (depositor defined):AID1777, AID1785, AID1786, AID1966, AID2133, AID2136, AID2284, AID2285, AID2370]; type: functional
[17] = biological target: T5, Kappa-type opioid receptor; test: SAR analysis of small molecule agonists of the kappa opioid receptor via a luminescent beta-arrestin assay - Set 3. [Related pubchem assays (depositor defined):AID1777, AID1785, AID1786, AID1966, AID2133, AID2136, AID2284, AID2500]; type: functional
[18] = biological target: T5, Kappa-type opioid receptor; test: SAR analysis of Agonists of the Kappa Opioid Receptor (KOR) using an Image-Based Assay - Set 2. [Related pubchem assays (depositor defined):AID1777, AID1786, AID1966, AID2133, AID2136, AID2284, AID2285, AID2359]; type: functional
[19] = biological target: T3, Delta-type opioid receptor; test: SAR Analysis of Antagonists of the DOR Receptor using an Image-Based Assay - Set 2. [Related pubchem assays (depositor defined):AID1777, AID1785, AID1786, AID1966, AID2133, AID2136, AID2284, AID2285, AID2357]; type: functional
[20] = biological target: T2, Mu-type opioid receptor; test: SAR Analysis of Antagonists of the MOR Receptor using an Image-Based Assay - Set 2. [Related pubchem assays (depositor defined):AID1777, AID1785, AID1786, AID1966, AID2133, AID2136, AID2284, AID2285, AID2420]; type: functional
[21] = biological target: T2, Mu-type opioid receptor; test: SAR Analysis of Agonists of the MOR Receptor using an Image-Based Assay - Set 3. [Related pubchem assays (depositor defined):AID1777, AID1785, AID1786, AID1966, AID2133, AID2136, AID2284, AID2285, AID2352]; type: functional
[22] = biological target: T2, Mu-type opioid receptor; test: SAR Analysis of Agonists of the MOR Receptor using an Image-Based Assay - Set 2. [Related pubchem assays (depositor defined):AID1777, AID1785, AID1786, AID1966, AID2133, AID2136, AID2284, AID2285, AID2352]; type: functional
[23] = Counterscreen for AddAB inhibitors: absorbance-based bacterial cell-based high throughput dose response assay for inhibitors of bacterial viability. [Related pubchem assays (depositor defined):AID435030, AID449728, AID449731, AID488942, AID488955, AID488956]; type: functional
[24] = biological target: Exodeoxyribonuclease V (Escherichia coli (strain K12), UniProt P04993+P07648+P08394); test: RecBCD inhibition via phage-restricted bacterial growth – absorbance, V66 E. coli, mutant T4 phage, counter-screen for AddAB inhibitor project, dose response (AID 492957); type: functional, cell-based, Escherichia coli str. K-12 substr. MG1655
Exodeoxyribonuclease V, sequence (P04993 whole entry): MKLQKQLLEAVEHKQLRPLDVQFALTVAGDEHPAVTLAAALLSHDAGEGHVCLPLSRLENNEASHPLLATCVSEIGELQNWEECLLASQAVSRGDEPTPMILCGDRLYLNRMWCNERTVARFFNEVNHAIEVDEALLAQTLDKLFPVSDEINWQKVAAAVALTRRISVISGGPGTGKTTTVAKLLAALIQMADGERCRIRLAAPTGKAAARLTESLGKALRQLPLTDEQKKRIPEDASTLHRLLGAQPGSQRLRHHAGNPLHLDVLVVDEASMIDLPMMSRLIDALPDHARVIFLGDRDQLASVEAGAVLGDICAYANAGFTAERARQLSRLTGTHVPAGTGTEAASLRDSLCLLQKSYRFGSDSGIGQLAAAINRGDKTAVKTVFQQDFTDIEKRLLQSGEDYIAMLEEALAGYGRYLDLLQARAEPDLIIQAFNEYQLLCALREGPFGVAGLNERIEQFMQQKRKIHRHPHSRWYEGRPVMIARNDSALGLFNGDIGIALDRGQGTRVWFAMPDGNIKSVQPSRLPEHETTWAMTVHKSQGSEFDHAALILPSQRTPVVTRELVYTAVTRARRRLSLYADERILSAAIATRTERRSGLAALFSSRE
Exodeoxyribonuclease V, sequence (P07648 whole entry): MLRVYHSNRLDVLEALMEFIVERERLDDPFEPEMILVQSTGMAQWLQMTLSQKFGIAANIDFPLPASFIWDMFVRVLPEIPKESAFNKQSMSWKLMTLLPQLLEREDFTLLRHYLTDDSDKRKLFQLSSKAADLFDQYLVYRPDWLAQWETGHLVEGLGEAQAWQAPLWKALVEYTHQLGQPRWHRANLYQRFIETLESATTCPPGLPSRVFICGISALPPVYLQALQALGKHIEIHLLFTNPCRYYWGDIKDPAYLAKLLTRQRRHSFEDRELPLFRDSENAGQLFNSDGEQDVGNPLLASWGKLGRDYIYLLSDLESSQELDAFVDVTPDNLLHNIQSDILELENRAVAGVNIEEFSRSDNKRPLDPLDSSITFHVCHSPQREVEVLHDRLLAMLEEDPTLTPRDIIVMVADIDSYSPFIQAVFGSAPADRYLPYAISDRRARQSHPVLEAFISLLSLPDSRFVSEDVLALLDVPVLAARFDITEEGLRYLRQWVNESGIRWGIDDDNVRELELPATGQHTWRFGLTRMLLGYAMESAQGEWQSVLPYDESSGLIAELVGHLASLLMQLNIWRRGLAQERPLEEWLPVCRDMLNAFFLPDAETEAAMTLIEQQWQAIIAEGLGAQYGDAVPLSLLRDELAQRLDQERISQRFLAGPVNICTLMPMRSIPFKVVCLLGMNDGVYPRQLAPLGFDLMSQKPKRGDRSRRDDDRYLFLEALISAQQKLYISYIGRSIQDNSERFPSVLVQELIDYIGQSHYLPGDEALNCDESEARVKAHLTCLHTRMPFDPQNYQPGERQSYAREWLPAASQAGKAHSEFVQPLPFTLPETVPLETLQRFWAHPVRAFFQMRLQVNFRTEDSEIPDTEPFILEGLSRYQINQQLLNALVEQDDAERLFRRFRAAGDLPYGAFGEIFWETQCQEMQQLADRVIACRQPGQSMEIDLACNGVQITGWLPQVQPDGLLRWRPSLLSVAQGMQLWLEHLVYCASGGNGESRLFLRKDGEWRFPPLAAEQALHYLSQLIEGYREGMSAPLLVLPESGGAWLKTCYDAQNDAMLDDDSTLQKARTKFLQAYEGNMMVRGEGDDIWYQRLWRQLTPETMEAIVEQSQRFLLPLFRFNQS
Exodeoxyribonuclease V, sequence (P08394 whole entry): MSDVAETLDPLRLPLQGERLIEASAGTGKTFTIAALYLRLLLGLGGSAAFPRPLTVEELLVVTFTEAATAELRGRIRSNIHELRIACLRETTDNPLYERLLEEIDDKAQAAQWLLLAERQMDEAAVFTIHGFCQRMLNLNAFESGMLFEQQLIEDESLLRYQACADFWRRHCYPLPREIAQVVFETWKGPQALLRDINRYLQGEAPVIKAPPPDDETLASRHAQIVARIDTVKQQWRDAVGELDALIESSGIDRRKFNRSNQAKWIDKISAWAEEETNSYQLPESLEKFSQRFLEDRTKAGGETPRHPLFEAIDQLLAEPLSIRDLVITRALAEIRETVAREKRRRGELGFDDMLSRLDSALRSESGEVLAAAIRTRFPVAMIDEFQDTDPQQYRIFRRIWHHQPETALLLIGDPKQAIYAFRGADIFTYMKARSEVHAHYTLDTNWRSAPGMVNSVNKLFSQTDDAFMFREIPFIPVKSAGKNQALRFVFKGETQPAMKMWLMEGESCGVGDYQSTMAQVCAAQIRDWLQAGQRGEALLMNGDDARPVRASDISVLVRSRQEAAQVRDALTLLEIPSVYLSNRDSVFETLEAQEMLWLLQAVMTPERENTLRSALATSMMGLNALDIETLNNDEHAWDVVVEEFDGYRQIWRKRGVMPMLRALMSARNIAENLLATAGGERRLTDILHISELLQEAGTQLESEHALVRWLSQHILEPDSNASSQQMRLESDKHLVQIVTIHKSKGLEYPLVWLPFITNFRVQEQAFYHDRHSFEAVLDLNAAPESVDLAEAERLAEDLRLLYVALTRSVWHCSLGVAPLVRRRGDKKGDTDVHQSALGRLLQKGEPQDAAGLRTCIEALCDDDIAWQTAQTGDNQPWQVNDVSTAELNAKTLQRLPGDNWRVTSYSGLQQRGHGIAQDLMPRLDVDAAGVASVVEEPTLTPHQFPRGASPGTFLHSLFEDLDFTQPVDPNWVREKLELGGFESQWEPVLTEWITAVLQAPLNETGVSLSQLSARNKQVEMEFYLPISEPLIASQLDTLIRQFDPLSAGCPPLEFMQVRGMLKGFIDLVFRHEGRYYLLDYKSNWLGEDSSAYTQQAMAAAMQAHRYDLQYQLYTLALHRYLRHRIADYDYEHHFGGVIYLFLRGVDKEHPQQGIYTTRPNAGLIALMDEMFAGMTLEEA

T3 sequence (P41143 whole entry): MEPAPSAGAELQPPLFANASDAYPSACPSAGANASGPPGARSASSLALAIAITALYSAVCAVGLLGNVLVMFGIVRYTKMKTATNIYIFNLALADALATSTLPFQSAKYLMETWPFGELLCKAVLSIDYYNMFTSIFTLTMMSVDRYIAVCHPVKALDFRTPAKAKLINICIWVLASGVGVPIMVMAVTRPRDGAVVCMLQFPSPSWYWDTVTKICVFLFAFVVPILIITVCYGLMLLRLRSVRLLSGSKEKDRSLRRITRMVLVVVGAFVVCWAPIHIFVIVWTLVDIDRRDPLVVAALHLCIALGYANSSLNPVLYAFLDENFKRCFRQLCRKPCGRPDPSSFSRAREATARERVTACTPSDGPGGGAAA
T2 sequence (P35372 whole entry): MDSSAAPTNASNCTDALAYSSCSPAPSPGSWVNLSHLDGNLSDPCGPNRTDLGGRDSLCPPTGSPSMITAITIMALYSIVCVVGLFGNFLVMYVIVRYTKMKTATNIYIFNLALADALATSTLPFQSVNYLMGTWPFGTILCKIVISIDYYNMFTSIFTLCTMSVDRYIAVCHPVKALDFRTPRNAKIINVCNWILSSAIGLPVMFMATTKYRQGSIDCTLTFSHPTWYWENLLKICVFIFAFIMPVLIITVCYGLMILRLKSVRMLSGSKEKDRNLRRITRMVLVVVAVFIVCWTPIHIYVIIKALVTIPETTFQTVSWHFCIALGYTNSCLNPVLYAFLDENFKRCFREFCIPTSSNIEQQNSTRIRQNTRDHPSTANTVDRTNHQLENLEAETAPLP
T5 sequence (P41145 whole entry): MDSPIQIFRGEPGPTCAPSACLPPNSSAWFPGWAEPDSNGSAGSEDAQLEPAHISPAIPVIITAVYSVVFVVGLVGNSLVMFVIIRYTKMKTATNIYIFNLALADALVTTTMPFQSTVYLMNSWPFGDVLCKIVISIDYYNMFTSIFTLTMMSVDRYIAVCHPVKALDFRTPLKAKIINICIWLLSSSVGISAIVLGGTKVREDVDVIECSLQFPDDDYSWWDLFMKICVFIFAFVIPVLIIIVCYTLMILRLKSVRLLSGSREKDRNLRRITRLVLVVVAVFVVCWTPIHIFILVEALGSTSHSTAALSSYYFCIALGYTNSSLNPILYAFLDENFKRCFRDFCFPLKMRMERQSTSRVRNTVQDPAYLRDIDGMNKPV
Sphingosine 1-phosphate receptor 1, sequence (P21453 whole entry): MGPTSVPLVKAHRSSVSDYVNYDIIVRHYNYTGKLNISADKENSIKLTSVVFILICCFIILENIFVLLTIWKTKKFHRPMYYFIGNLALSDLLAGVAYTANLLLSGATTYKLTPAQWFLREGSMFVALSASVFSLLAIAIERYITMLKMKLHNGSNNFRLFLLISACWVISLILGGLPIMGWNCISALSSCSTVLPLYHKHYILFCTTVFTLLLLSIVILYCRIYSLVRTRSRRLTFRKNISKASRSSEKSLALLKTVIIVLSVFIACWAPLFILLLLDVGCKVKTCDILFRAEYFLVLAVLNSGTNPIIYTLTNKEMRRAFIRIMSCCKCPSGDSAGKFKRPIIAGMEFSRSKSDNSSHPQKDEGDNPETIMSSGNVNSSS
Dual specificity protein phosphatase 3, sequence (P51452 whole entry): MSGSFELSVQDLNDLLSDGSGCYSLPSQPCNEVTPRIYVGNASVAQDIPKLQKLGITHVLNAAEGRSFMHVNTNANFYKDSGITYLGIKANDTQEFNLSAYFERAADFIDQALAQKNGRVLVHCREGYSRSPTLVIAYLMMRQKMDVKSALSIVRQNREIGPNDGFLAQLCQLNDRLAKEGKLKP

EC50 [1]: 1.88 µM (active) | EC50 [2]: 4.14 µM (active)
Compound: CC(=O)c1cc2ccc(O)cc2oc1=O

Compound: O=C(NC(NC(=S)Nc1ccc(Cl)cc1Cl)C(Cl)(Cl)Cl)OCc1ccccc1 (centres undefined)
IC50 [3]: > 32 µM (inactive) | IC50 [4]: > 32 µM (inactive) | IC50 [5]: > 100 µM (inactive) | IC50 [6]: > 100 µM (inactive) | EC50 [7]: > 32 µM (inactive) | IC50 [8]: 0.879 µM (active) | EC50 [9]: > 32 µM (inactive) | IC50 [10]: 2.09 µM (active) | EC50 [11]: > 32 µM (inactive)

EC50 [12]: 0.694 µM (active) | EC50 [13]: 2.27 µM (active) | IC50 [14]: > 32 µM (inactive) | EC50 [15]: > 64 µM (inactive) | EC50 [16]: > 32 µM (inactive) | EC50 [17]: 1.38 µM (active) | EC50 [18]: 8.11 µM (active) | IC50 [19]: > 32 µM (inactive) | IC50 [20]: > 32 µM (inactive) | EC50 [21]: > 32 µM (inactive) | EC50 [22]: > 32 µM (inactive)
Compound: Clc1ccc(CSc2nnc(-c3ccccn3)n2Cc2cccs2)c(Cl)c1

Compound: O=C(N/N=C\c1cccc(Cl)c1)c1ccc(Cn2cc(Br)c([N+](=O)[O-])n2)o1
IC50 [23]: > 119 µM (inactive) | IC50 [24]: > 119 µM (inactive)
